Assays:
Test in all cases: KINOMEscan
Type in all cases: binding
Settings in all cases: 10000 nM; read-out: Percent Control
TSSK1B = biological target: T1, TSSK1B (Homo sapiens, UniProt Q9BXA7)
T1 construct: purchased DiscoverX KINOMEscan scanEDGE; Eurofins Cerep SafetyScreen87
Procedure: (§1) The possibility of KDS12025 on kinase off-target, the KINOMEscan panel of scanEDGE assay was conducted in DiscoverX (CA, USA) using a site-directed competition binding with the test compounds. The assay results are given in Supplementary Table 4 and experimental information is available on the DiscoverX web page (www.discoverx.com). Moreover, the Delta SafetyScreen87 panel assay was conducted in Eurofins Discovery (Cerep, France). The assay results are given in Supplementary Table 5 and experimental information is available on the DiscoverX web page (https://www.eurofinsdiscoveryservices.com).

BMPR2 = biological target: T2, BMPR2 (Homo sapiens, UniProt Q13873)
T2 construct: purchased DiscoverX KINOMEscan scanEDGE; Eurofins Cerep SafetyScreen87
Procedure: as §1

JNK3 = biological target: T3, JNK3 (Homo sapiens, UniProt P53779)
T3 construct: purchased DiscoverX KINOMEscan scanEDGE; Eurofins Cerep SafetyScreen87
Procedure: as §1

MKNK2 = biological target: T4, MKNK2 (Homo sapiens, UniProt Q9HBH9)
T4 construct: purchased DiscoverX KINOMEscan scanEDGE; Eurofins Cerep SafetyScreen87
Procedure: as §1

RAF1 = biological target: T5, RAF1 (Homo sapiens, UniProt P04049)
T5 construct: purchased DiscoverX KINOMEscan scanEDGE; Eurofins Cerep SafetyScreen87
Procedure: as §1

[1] = biological target: T6, ABL1(E255K)-phosphorylated (Homo sapiens, UniProt P00519, E255K)
T6 construct: purchased DiscoverX KINOMEscan scanEDGE; Eurofins Cerep SafetyScreen87
Procedure: as §1

SRPK3 = biological target: T7, SRPK3 (Homo sapiens, UniProt Q9UPE1)
T7 construct: purchased DiscoverX KINOMEscan scanEDGE; Eurofins Cerep SafetyScreen87
Procedure: as §1

MKNK1 = biological target: T8, MKNK1 (Homo sapiens, UniProt Q9BUB5)
T8 construct: purchased DiscoverX KINOMEscan scanEDGE; Eurofins Cerep SafetyScreen87
Procedure: as §1

[2] = biological target: T9, JAK3(JH1domain-catalytic) (Homo sapiens, UniProt P52333)
T9 construct: JAK3(JH1domain-catalytic); purchased DiscoverX KINOMEscan scanEDGE; Eurofins Cerep SafetyScreen87
Procedure: as §1

JNK1 = biological target: T10, JNK1 (Homo sapiens, UniProt P45983)
T10 construct: purchased DiscoverX KINOMEscan scanEDGE; Eurofins Cerep SafetyScreen87
Procedure: as §1

YANK3 = biological target: T11, YANK3 (Homo sapiens, UniProt Q86UX6)
T11 construct: purchased DiscoverX KINOMEscan scanEDGE; Eurofins Cerep SafetyScreen87
Procedure: as §1

IGF1R = biological target: T12, IGF1R (Homo sapiens, UniProt P08069)
T12 construct: purchased DiscoverX KINOMEscan scanEDGE; Eurofins Cerep SafetyScreen87
Procedure: as §1

[3] = biological target: T13, TYK2(JH1domain-catalytic) (Homo sapiens, UniProt P29597)
T13 construct: TYK2(JH1domain-catalytic); purchased DiscoverX KINOMEscan scanEDGE; Eurofins Cerep SafetyScreen87
Procedure: as §1

ROCK2 = biological target: T14, ROCK2 (Homo sapiens, UniProt O75116)
T14 construct: purchased DiscoverX KINOMEscan scanEDGE; Eurofins Cerep SafetyScreen87
Procedure: as §1

MEK1 = biological target: T15, MEK1 (Homo sapiens, UniProt Q02750)
T15 construct: purchased DiscoverX KINOMEscan scanEDGE; Eurofins Cerep SafetyScreen87
Procedure: as §1

FLT3 = biological target: T16, FLT3 (Homo sapiens, UniProt P36888)
T16 construct: purchased DiscoverX KINOMEscan scanEDGE; Eurofins Cerep SafetyScreen87
Procedure: as §1

ADCK3 = biological target: T17, ADCK3 (Homo sapiens, UniProt Q8NI60)
T17 construct: purchased DiscoverX KINOMEscan scanEDGE; Eurofins Cerep SafetyScreen87
Procedure: as §1

RIOK2 = biological target: T18, RIOK2 (Homo sapiens, UniProt Q9BVS4)
T18 construct: purchased DiscoverX KINOMEscan scanEDGE; Eurofins Cerep SafetyScreen87
Procedure: as §1

CSF1R = biological target: T19, CSF1R (Homo sapiens, UniProt P07333)
T19 construct: purchased DiscoverX KINOMEscan scanEDGE; Eurofins Cerep SafetyScreen87
Procedure: as §1

INSR = biological target: T20, INSR (Homo sapiens, UniProt P06213)
T20 construct: purchased DiscoverX KINOMEscan scanEDGE; Eurofins Cerep SafetyScreen87
Procedure: as §1

PLK3 = biological target: T21, PLK3 (Homo sapiens, UniProt Q9H4B4)
T21 construct: purchased DiscoverX KINOMEscan scanEDGE; Eurofins Cerep SafetyScreen87
Procedure: as §1

AXL = biological target: T22, AXL (Homo sapiens, UniProt P30530)
T22 construct: purchased DiscoverX KINOMEscan scanEDGE; Eurofins Cerep SafetyScreen87
Procedure: as §1

CSNK1G2 = biological target: T23, CSNK1G2 (Homo sapiens, UniProt P78368)
T23 construct: purchased DiscoverX KINOMEscan scanEDGE; Eurofins Cerep SafetyScreen87
Procedure: as §1

MAPKAPK2 = biological target: T24, MAPKAPK2 (Homo sapiens, UniProt P49137)
T24 construct: purchased DiscoverX KINOMEscan scanEDGE; Eurofins Cerep SafetyScreen87
Procedure: as §1

PKAC-alpha = biological target: T25, PKAC-alpha (Homo sapiens, UniProt P17612)
T25 construct: purchased DiscoverX KINOMEscan scanEDGE; Eurofins Cerep SafetyScreen87
Procedure: as §1

ERK1 = biological target: T26, ERK1 (Homo sapiens, UniProt P27361)
T26 construct: purchased DiscoverX KINOMEscan scanEDGE; Eurofins Cerep SafetyScreen87
Procedure: as §1

BRAF = biological target: T27, BRAF (Homo sapiens, UniProt P15056)
T27 construct: purchased DiscoverX KINOMEscan scanEDGE; Eurofins Cerep SafetyScreen87
Procedure: as §1

ERBB2 = biological target: T28, ERBB2 (Homo sapiens, UniProt P04626)
T28 construct: purchased DiscoverX KINOMEscan scanEDGE; Eurofins Cerep SafetyScreen87
Procedure: as §1

KIT = biological target: T29, KIT (Homo sapiens, UniProt P10721)
T29 construct: purchased DiscoverX KINOMEscan scanEDGE; Eurofins Cerep SafetyScreen87
Procedure: as §1

CDK9 = biological target: T30, CDK9 (Homo sapiens, UniProt P50750)
T30 construct: purchased DiscoverX KINOMEscan scanEDGE; Eurofins Cerep SafetyScreen87
Procedure: as §1

VEGFR2 = biological target: T31, VEGFR2 (Homo sapiens, UniProt P35968)
T31 construct: purchased DiscoverX KINOMEscan scanEDGE; Eurofins Cerep SafetyScreen87
Procedure: as §1

[4] = biological target: T32, RSK2(Kin.Dom.1-N-terminal) (Homo sapiens, UniProt P51812)
T32 construct: RSK2(Kin.Dom.1-N-terminal); purchased DiscoverX KINOMEscan scanEDGE; Eurofins Cerep SafetyScreen87
Procedure: as §1

ALK = biological target: T33, ALK (Homo sapiens, UniProt Q9UM73)
T33 construct: purchased DiscoverX KINOMEscan scanEDGE; Eurofins Cerep SafetyScreen87
Procedure: as §1

PLK4 = biological target: T34, PLK4 (Homo sapiens, UniProt O00444)
T34 construct: purchased DiscoverX KINOMEscan scanEDGE; Eurofins Cerep SafetyScreen87
Procedure: as §1

CSNK1D = biological target: T35, CSNK1D (Homo sapiens, UniProt P48730)
T35 construct: purchased DiscoverX KINOMEscan scanEDGE; Eurofins Cerep SafetyScreen87
Procedure: as §1

BRAF(V600E) = biological target: T36, BRAF(V600E) (Homo sapiens, UniProt P15056, V600E)
T36 construct: purchased DiscoverX KINOMEscan scanEDGE; Eurofins Cerep SafetyScreen87
Procedure: as §1

PDPK1 = biological target: T37, PDPK1 (Homo sapiens, UniProt O15530)
T37 construct: purchased DiscoverX KINOMEscan scanEDGE; Eurofins Cerep SafetyScreen87
Procedure: as §1

SNARK = biological target: T38, SNARK (Homo sapiens, UniProt Q9H093)
T38 construct: purchased DiscoverX KINOMEscan scanEDGE; Eurofins Cerep SafetyScreen87
Procedure: as §1

T5 sequence (P04049 whole entry): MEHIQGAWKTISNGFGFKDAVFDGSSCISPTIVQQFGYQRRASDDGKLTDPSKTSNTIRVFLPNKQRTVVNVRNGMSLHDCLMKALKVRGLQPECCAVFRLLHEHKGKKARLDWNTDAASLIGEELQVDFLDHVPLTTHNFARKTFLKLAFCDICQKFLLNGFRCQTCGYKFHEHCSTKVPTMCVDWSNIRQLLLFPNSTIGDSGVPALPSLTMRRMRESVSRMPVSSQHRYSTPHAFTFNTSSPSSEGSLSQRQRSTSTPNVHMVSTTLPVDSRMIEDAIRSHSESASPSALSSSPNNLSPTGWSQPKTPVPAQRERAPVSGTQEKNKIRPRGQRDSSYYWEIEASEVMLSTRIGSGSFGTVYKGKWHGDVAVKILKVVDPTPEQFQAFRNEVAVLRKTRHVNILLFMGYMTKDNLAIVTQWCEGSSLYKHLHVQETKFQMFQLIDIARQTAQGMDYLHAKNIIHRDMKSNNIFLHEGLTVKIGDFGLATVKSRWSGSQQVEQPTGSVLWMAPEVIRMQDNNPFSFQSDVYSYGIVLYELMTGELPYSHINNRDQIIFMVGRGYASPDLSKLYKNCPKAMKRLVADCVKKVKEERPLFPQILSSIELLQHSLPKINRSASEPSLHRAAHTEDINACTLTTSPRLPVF
T37 sequence (O15530 whole entry): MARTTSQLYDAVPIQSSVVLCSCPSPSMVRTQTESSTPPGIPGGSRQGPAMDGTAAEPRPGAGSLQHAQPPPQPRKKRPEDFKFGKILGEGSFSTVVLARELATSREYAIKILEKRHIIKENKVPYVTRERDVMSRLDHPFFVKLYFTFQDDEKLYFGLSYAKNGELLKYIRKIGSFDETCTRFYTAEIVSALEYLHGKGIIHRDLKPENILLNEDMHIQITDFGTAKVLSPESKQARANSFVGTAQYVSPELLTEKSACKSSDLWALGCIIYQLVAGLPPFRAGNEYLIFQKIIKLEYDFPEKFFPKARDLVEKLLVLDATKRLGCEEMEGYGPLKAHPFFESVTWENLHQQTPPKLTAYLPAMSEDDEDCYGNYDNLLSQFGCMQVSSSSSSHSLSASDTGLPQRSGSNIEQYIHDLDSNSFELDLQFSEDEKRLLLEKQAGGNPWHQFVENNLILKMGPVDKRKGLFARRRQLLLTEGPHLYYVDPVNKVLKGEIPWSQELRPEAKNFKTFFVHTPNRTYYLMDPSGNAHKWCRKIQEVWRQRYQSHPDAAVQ
T36 sequence (P15056 whole entry V600E): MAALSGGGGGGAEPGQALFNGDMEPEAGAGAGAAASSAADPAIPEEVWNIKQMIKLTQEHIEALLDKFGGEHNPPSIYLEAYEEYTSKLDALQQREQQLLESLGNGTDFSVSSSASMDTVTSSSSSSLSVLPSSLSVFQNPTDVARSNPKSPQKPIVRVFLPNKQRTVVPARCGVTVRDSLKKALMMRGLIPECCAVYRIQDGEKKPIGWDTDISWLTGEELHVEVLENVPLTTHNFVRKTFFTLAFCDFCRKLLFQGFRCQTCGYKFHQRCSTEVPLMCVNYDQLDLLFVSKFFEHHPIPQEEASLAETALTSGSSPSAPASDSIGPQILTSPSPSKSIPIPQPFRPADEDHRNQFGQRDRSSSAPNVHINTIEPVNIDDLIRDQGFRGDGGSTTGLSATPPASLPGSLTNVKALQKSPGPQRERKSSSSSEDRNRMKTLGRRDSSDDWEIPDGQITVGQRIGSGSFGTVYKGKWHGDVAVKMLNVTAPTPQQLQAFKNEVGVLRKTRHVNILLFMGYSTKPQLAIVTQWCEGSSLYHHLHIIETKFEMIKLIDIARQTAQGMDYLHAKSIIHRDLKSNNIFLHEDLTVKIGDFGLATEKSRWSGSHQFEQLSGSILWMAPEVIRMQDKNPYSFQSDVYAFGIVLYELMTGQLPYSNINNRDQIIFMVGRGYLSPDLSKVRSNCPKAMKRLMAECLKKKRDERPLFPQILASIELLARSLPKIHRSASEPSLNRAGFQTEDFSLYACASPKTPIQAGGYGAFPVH
T2 sequence (Q13873 27-1038): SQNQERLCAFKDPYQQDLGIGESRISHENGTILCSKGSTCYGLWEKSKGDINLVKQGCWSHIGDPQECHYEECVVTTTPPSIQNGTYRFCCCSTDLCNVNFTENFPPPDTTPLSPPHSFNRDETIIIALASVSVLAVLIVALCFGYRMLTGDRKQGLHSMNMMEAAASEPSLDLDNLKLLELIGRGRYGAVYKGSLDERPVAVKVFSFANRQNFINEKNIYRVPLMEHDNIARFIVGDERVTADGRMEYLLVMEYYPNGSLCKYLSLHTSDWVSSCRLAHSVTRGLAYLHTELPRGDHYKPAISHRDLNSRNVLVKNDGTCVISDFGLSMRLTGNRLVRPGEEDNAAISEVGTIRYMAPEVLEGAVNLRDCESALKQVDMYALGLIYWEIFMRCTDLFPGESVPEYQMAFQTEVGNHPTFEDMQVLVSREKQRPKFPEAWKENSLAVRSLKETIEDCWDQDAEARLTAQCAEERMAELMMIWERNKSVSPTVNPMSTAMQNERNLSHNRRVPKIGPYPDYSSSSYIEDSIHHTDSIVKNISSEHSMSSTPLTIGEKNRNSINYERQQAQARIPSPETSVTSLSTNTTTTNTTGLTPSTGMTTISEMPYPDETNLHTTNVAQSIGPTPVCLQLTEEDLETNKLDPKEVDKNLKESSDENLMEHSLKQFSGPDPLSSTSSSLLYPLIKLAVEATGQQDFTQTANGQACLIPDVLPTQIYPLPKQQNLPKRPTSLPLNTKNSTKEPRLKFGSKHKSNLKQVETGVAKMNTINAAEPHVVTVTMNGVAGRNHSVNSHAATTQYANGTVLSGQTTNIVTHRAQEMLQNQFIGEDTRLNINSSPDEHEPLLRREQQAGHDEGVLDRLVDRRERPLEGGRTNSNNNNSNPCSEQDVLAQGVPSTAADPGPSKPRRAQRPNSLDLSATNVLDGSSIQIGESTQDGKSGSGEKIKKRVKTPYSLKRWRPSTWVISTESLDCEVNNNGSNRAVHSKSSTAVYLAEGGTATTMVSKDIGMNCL
T29 sequence (P10721 26-976): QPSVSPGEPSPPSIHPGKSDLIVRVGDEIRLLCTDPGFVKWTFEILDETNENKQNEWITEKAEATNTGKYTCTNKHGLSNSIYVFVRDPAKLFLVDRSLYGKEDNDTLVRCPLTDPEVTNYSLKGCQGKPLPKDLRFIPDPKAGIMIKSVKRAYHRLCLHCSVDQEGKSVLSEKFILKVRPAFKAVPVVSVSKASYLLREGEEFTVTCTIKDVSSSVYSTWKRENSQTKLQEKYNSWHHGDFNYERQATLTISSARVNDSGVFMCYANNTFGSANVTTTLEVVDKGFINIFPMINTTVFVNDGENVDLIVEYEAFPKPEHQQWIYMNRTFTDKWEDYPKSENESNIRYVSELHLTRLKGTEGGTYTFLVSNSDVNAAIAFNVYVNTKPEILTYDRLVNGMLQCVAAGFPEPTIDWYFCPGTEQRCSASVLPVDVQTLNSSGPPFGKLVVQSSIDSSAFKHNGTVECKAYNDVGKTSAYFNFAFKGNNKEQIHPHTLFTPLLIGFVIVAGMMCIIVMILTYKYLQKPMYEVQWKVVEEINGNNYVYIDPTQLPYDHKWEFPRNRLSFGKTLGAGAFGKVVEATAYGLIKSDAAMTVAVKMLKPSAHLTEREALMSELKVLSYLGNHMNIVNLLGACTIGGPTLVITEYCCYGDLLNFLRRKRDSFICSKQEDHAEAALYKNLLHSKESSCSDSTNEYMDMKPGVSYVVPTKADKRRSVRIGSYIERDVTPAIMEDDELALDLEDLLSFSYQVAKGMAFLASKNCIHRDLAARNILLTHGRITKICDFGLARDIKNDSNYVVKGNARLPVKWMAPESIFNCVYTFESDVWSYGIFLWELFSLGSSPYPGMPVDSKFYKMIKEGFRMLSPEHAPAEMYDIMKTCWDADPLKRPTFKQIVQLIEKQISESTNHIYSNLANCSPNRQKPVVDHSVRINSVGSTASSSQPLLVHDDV
T34 sequence (O00444 whole entry): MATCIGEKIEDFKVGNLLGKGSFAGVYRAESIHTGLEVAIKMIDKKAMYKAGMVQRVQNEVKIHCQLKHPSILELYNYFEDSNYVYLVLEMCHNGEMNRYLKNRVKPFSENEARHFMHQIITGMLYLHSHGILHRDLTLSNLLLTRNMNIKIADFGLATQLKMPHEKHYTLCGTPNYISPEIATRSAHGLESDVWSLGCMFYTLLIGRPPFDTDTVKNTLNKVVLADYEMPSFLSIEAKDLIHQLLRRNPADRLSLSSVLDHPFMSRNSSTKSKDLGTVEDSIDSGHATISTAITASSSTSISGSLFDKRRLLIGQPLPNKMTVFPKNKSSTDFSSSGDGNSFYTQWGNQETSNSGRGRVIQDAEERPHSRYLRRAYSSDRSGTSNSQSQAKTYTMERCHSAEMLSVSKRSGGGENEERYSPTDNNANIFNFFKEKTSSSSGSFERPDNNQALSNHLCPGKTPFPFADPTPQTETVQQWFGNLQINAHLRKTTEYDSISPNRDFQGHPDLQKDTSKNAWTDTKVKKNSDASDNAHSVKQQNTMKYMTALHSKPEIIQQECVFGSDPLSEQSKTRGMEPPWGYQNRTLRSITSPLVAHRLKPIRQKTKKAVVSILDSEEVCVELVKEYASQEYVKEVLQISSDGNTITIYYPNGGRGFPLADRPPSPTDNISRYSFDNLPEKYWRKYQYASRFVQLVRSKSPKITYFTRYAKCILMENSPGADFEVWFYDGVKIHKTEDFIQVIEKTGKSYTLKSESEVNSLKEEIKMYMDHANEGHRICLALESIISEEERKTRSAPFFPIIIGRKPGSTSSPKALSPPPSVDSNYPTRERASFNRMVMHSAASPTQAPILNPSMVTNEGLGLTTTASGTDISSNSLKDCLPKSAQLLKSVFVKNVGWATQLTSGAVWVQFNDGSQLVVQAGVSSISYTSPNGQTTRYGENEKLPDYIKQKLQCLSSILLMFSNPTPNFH
T27 sequence (P15056 whole entry): as the sequence (P15056 whole entry V600E) above, with E600V counted along it

CNc1ccc(NCCc2ccccc2OC)cc1.Cl [KDS12025, N^1-(2-methoxyphenethyl)-N^4-methylbenzene-1,4-diamine hydrochloride salt]
remaining binding at 10 µM (TSSK1B): 45%
remaining binding at 10 µM (BMPR2): 92%
remaining binding at 10 µM (JNK3): 68%
remaining binding at 10 µM (MKNK2): 95%
remaining binding at 10 µM (RAF1): 95%
remaining binding at 10 µM [1]: 100%
remaining binding at 10 µM (SRPK3): 91%
remaining binding at 10 µM (MKNK1): 100%
remaining binding at 10 µM [2]: 76%
remaining binding at 10 µM (JNK1): 75%
remaining binding at 10 µM (YANK3): 83%
remaining binding at 10 µM (IGF1R): 84%
remaining binding at 10 µM [3]: 93%
remaining binding at 10 µM (ROCK2): 85%
remaining binding at 10 µM (MEK1): 82%
remaining binding at 10 µM (FLT3): 100%
remaining binding at 10 µM (ADCK3): 93%
remaining binding at 10 µM (RIOK2): 98%
remaining binding at 10 µM (CSF1R): 100%
remaining binding at 10 µM (INSR): 85%
remaining binding at 10 µM (PLK3): 75%
remaining binding at 10 µM (AXL): 95%
remaining binding at 10 µM (CSNK1G2): 45%
remaining binding at 10 µM (MAPKAPK2): 75%
remaining binding at 10 µM (PKAC-alpha): 74%
remaining binding at 10 µM (ERK1): 83%
remaining binding at 10 µM (BRAF): 100%
remaining binding at 10 µM (ERBB2): 100%
remaining binding at 10 µM (KIT): 90%
remaining binding at 10 µM (CDK9): 83%
remaining binding at 10 µM (VEGFR2): 100%
remaining binding at 10 µM [4]: 84%
remaining binding at 10 µM (ALK): 98%
remaining binding at 10 µM (PLK4): 77%
remaining binding at 10 µM (CSNK1D): 88%
remaining binding at 10 µM (BRAF(V600E)): 100%
remaining binding at 10 µM (PDPK1): 56%
remaining binding at 10 µM (SNARK): 100%
